As a reminder, the IC50 is the concentration that gives 50% inhibition.

One test has as its target PIK3CG (human) (UniProt P48736). In words: Assessment of PIK3CG Kinase Activity.
In the next test the target is PIK3CA (human) (UniProt P42336). In words: Assessment of PIK3CA Kinase Activity.
The target of test [1] is PIK3CD (Human) (UniProt O00329). Description: Cell-Based Assay. Conditions: u937.
Test [2] shares this target. Description: Enzyme Assay.

Chain of PIK3CA (human) (P42336 whole entry, looked up): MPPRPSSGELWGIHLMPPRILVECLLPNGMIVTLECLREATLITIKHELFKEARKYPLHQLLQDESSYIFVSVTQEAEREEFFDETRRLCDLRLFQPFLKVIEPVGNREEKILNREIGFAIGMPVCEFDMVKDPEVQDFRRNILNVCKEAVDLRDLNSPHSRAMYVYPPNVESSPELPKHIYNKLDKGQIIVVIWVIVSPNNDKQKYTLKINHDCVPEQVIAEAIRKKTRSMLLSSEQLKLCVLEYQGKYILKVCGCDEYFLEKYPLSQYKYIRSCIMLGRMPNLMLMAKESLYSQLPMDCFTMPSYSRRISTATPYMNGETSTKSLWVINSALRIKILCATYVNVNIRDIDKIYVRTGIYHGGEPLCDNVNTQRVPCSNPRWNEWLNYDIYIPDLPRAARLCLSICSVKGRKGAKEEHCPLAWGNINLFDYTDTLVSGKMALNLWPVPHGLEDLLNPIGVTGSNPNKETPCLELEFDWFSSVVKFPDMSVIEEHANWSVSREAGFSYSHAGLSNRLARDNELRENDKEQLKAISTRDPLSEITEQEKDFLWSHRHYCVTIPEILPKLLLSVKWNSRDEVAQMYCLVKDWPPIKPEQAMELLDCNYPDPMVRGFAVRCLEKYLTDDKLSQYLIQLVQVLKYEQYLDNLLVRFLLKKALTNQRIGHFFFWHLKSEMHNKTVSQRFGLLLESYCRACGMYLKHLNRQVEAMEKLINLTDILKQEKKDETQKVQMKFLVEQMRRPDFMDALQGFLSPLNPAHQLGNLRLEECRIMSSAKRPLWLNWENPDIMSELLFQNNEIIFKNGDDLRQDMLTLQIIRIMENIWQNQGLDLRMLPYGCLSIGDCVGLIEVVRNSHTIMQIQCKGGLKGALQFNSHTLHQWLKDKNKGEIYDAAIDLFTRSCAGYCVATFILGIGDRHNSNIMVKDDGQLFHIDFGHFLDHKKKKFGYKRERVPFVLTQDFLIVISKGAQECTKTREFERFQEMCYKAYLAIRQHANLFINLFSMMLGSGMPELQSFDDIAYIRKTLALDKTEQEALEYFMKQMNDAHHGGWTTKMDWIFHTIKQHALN
Chain of PIK3CG (human) (P48736 whole entry, looked up): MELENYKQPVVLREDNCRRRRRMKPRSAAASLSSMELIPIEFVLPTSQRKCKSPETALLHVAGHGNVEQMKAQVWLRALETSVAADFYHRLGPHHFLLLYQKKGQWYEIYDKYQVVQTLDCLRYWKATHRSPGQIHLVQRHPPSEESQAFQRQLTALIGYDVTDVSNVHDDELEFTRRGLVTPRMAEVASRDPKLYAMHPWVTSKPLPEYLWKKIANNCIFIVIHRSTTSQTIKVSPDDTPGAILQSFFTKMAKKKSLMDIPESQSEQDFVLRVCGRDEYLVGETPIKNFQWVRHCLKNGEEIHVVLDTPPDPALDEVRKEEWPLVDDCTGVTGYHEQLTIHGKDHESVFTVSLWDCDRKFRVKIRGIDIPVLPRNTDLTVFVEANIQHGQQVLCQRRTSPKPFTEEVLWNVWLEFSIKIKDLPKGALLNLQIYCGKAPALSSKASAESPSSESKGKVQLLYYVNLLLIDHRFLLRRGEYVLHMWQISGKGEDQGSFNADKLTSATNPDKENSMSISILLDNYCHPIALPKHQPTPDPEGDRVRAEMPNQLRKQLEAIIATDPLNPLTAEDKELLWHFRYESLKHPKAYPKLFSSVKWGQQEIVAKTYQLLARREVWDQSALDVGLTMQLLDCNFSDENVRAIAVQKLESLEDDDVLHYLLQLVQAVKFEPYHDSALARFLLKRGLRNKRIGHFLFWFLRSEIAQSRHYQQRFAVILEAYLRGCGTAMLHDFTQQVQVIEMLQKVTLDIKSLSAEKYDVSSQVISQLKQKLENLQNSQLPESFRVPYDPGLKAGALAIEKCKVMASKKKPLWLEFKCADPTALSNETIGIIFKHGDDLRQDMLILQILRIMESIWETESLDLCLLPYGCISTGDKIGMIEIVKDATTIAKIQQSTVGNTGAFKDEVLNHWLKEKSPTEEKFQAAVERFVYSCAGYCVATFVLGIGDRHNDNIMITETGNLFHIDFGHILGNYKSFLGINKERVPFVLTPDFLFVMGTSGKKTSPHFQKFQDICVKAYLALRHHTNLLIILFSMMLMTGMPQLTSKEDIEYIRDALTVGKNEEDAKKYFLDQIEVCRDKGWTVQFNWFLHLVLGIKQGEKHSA
Chain of PIK3CD (Human) (O00329 whole entry, looked up): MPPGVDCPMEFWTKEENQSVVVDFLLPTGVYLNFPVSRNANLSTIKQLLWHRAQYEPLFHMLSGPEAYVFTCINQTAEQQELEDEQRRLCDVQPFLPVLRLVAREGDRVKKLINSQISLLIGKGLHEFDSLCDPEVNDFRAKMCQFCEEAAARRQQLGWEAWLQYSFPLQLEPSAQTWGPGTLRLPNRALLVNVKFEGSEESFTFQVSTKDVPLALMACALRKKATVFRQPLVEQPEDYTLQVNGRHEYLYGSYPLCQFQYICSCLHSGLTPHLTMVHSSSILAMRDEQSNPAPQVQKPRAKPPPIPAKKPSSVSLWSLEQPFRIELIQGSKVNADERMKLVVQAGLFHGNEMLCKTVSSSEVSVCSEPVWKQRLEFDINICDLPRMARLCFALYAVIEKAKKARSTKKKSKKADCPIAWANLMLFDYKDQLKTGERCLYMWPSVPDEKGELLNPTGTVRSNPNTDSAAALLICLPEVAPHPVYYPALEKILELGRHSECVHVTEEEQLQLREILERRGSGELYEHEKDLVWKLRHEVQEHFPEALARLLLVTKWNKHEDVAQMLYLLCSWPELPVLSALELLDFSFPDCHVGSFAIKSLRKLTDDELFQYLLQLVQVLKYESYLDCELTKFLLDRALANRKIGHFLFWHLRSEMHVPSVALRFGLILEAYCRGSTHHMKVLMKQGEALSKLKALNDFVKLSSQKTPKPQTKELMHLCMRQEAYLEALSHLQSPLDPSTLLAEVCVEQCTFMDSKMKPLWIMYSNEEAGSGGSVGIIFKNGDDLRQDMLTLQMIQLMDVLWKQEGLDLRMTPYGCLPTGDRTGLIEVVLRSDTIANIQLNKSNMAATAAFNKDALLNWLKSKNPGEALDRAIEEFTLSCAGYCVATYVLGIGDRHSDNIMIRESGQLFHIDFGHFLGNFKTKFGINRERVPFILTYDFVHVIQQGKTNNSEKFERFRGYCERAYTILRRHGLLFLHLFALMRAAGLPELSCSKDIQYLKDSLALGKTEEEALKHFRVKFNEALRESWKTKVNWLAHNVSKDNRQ

Regarding `C#Cc1cccc2nc(Cn3nc(-c4ccc(O)cc4)c4c(N)ncnc43)n(Cc3cccc(C#N)c3)c(=O)c12`, the half-inhibitory concentration (IC50) on PIK3CG (human) was 50 to 1000 nM; against PIK3CA (human), 50 to 1000 nM; against PIK3CD (Human) [1], less than 10 nM; against PIK3CD (Human) [2], less than 50 nM.
With `CC(=O)NCC(=O)NCC#Cc1cccc2nc(Cn3nc(-c4cccc(O)c4)c4c(N)ncnc43)n(Cc3ccccc3Cl)c(=O)c12`, the IC50 was less than 50 nM against PIK3CG (human), 50 to 1000 nM against PIK3CA (human), less than 10 nM on PIK3CD (Human) [1] and less than 50 nM on PIK3CD (Human) [2].
For the compound `COCCOCC#Cc1cccc2nc(Cn3nc(-c4cccc(O)c4)c4c(N)ncnc43)n(Cc3ccccc3Cl)c(=O)c12`, the IC50 against PIK3CG (human) was 50 to 1000 nM; at PIK3CA (human), 50 to 1000 nM; against PIK3CD (Human) [1], less than 10 nM; on PIK3CD (Human) [2], less than 50 nM.
As to `COCCOCCOCC#Cc1cccc2nc(Cn3nc(-c4cccc(O)c4)c4c(N)ncnc43)n(Cc3ccccc3Cl)c(=O)c12`, the IC50 on PIK3CG (human) was 50 to 1000 nM; on PIK3CD (Human) [1], less than 10 nM; against PIK3CD (Human) [2] it was less than 50 nM.
As to `Cc1cnc(Cn2c(Cn3nc(-c4cccc(O)c4)c4c(N)ncnc43)nc3cccc(C#CCCCC(=O)N4CCOCC4)c3c2=O)cn1`, the IC50 at PIK3CG (human) was less than 50 nM; at PIK3CA (human), 50 to 1000 nM; against PIK3CD (Human) [1] it was less than 10 nM; against PIK3CD (Human) [2] it was less than 50 nM.
On to `C#Cc1cccc2nc(Cn3nc(-c4cccc(O)c4)c4c(N)ncnc43)n(Cc3ccc(S(C)(=O)=O)cc3)c(=O)c12`, for which, on PIK3CD (Human) [1], the IC50 is less than 10 nM.
Compound `C#Cc1cccc2nc(Cn3nc(-c4ccc(O)cc4)c4c(N)ncnc43)n(Cc3ccccc3C(F)(F)F)c(=O)c12` had a half-maximal inhibitory concentration (IC50) against PIK3CD (Human) [1] of less than 10 nM.
On the same count and under the same terms, as for `CN(C)C1CCN(C(=O)CCCC#Cc2cccc3nc(Cn4nc(-c5cccc(O)c5)c5c(N)ncnc54)n(Cc4ccccc4Cl)c(=O)c23)C1` (stereo not given), the figure is 10 to 1000 nM; as for `COC(=O)c1cccc(Cn2c(Cn3nc(-c4cccc(O)c4)c4c(N)ncnc43)nc3cccc(C#CCCCC(=O)N4CCOCC4)c3c2=O)c1`, less than 10 nM; as for `N#Cc1cccc(Cn2c(Cn3nc(-c4cccc(O)c4)c4c(N)ncnc43)nc3cccc(C#CCOCCOCCO)c3c2=O)c1`, less than 10 nM.
On PIK3CD (Human) [1], `COCCN(CCOC)C(=O)CCCC#Cc1cccc2nc(Cn3nc(-c4ccc(O)cc4)c4c(N)ncnc43)n(Cc3ccccc3Cl)c(=O)c12` came in with an IC50 of less than 10 nM.
Same read-out and setting: the value for `Nc1ncnc2c1c(-c1ccc(O)cc1)nn2Cc1nc2cccc(C#CCOc3ccccc3)c2c(=O)n1Cc1ccccc1Cl` was less than 10 nM; that for `CN(C)CCNC(=O)CCCC#Cc1cccc2nc(Cn3nc(-c4ccc(O)cc4)c4c(N)ncnc43)n(Cc3ccccc3Cl)c(=O)c12` was less than 10 nM.
Same read-out and setting: the value for `C#Cc1cccc2nc(Cn3nc(-c4ccc(O)cc4)c4c(N)ncnc43)n(Cc3cc(C)on3)c(=O)c12` was less than 10 nM.
On the same count and under the same terms, the value for `COCCOCCOCC#Cc1cccc2nc(Cn3nc(-c4cccc(O)c4)c4c(N)ncnc43)n(Cc3ccccc3F)c(=O)c12` was less than 10 nM; that for `CN(C)C1CCN(C(=O)CCCC#Cc2cccc3nc(Cn4nc(-c5ccc(O)cc5)c5c(N)ncnc54)n(Cc4ccccc4Cl)c(=O)c23)CC1` was less than 10 nM.
With `Nc1ncnc2c1c(-c1ccc(O)cc1)nn2Cc1nc2cccc(C#CCC3CCCC3)c2c(=O)n1Cc1ccccc1Cl`, the IC50 on PIK3CD (Human) [1] is less than 10 nM.
With `Nc1ncnc2c1c(-c1ccc(O)cc1)nn2Cc1nc2cccc(C#CCCCC(=O)NC3CCNC3)c2c(=O)n1Cc1ccccc1Cl` (stereo not given), the IC50 on PIK3CG (human) is less than 50 nM; at PIK3CA (human), 1490 nM; at PIK3CD (Human) [1], less than 10 nM; against PIK3CD (Human) [2], less than 50 nM.
